In article PMC6576746, “Rational discovery of dual-indication multi-target PDE/Kinase inhibitor for precision anti-cancer therapy using structural systems pharmacology” (PLoS Computational Biology, 2019):

Experiments:
Assay in all cases: cells
Design in all cases: species or system panel of human cancer cell lines; Eurofins OncoPanel proliferation; nuclei count by high-content fluorescence imaging, 10-point dose response
[1] = test system: DOHH-2; details: Homo sapiens, DOHH-2, 72 h, cell count, 3 days
Protocol: (§1) OncoPanel cancer cell proliferation assay was performed by Eurofins Panlabs, Inc. (Missouri, USA). Cancer cells were grown in RPMI 1640, 10% FBS, 2 mM L-alanyl-L-glutamine, 1 mM Na pyruvate, or a special medium. Cells were seeded into 384-well plates and incubated in a humidified atmosphere of 5% CO2 at 37°C. Compounds were added the day following cell seeding. At the same time, a time zero untreated cell plate was generated. After a 3-day incubation period, cells were fixed and stained to allow fluorescence imaging of nuclei. Levosimendan was serially diluted in half-log steps from 100 μM and assayed over 10 concentrations with a maximum assay concentration of 0.1% DMSO. Automated fluorescence microscopy was carried out using a Molecular Devices ImageXpress Micro XL high-content imager, and images were collected with a 4X objective. 16-bit TIFF images were acquired and analyzed with MetaXpress 5.1.0.41 software. Cell count EC50 is the test concentration at the curve inflection point (parameter C), or half the effective response. IC50 is the test compound concentration at 50% of the maximum possible response. GI50 is the concentration needed to reduce the observed growth by half (midway between the relative cell count at the curve maximum and at the time of compound addition). Activity area is an estimate of the integrated area above the response curve. Activity area values range from 0–10, where a value of zero indicates no inhibition of proliferation at all concentrations, and a value of 10 indicates complete inhibition of proliferation at all concentrations.

[2] = test system: EB-3; details: Homo sapiens, EB-3, 72 h, cell count, 3 days
Protocol: as §1

[3] = test system: MC116; details: Homo sapiens, MC116, 72 h, cell count, 3 days
Protocol: as §1

[4] = test system: SK-LMS-1; details: Homo sapiens, SK-LMS-1, 72 h, cell count, 3 days
Protocol: as §1

[5] = test system: A-704; details: Homo sapiens, A704, 72 h, cell count, 3 days
Protocol: as §1

[6] = test system: SW684; details: Homo sapiens, SW684, 72 h, cell count, 3 days
Protocol: as §1

[7] = test system: EB2; details: Homo sapiens, EB2, 72 h, cell count, 3 days
Protocol: as §1

[8] = test system: CRO-AP2; details: Homo sapiens, CRO-AP2, 72 h, cell count, 3 days
Protocol: as §1

[9] = test system: MV-4-11; details: Homo sapiens, MV4-11, 72 h, cell count, 3 days
Protocol: as §1

[10] = test system: SW480; details: Homo sapiens, SW480, 72 h, cell count, 3 days
Protocol: as §1

[11] = test system: Hs 821.T; details: 72 h, cell count, 3 days
Protocol: as §1

[12] = test system: SW1353; details: Homo sapiens, SW1353, 72 h, cell count, 3 days
Protocol: as §1

[13] = test system: FaDu; details: Homo sapiens, FaDu, 72 h, cell count, 3 days
Protocol: as §1

[14] = test system: U2OS; details: Homo sapiens, U2OS, 72 h, cell count, 3 days
Protocol: as §1

[15] = 50% of maximum possible response

IC50 [4, 15]: 27.1 µM | GI50 ([4]; corrected for time zero): 21.5 µM | EC50 ([4]; curve inflection point): 27.1 µM | IC50 [6, 15]: > 100 µM | GI50 ([6]; corrected for time zero): 17.1 µM | EC50 ([6]; curve inflection point): 21.1 µM | IC50 [9, 15]: 13.1 µM | GI50 ([9]; corrected for time zero): 9.2 µM | EC50 ([9]; curve inflection point): 12.6 µM | IC50 [10, 15]: 15.3 µM | GI50 ([10]; corrected for time zero): 10.8 µM | EC50 ([10]; curve inflection point): 13.1 µM | IC50 [12, 15]: 72.8 µM | GI50 ([12]; corrected for time zero): 60.9 µM | EC50 ([12]; curve inflection point): 72.8 µM | IC50 [14, 15]: 8.58 µM | GI50 ([14]; corrected for time zero): 6.64 µM | EC50 ([14]; curve inflection point): 7.6 µM
SMILES: C[C@@H]1CC(=O)NN=C1c1ccc(NN=C(C#N)C#N)cc1 [levosimendan]
IC50 [1, 15]: 15.8 µM | GI50 ([1]; corrected for time zero): 14.4 µM | EC50 ([1]; curve inflection point): 15.8 µM | IC50 [2, 15]: 30 µM | GI50 ([2]; corrected for time zero): 23.6 µM | EC50 ([2]; curve inflection point): 30 µM | IC50 [3, 15]: 14.9 µM | GI50 ([3]; corrected for time zero): 13.8 µM | EC50 ([3]; curve inflection point): 14.7 µM | IC50 [5, 15]: > 100 µM | GI50 ([5]; corrected for time zero): 64.7 µM | EC50 ([5]; curve inflection point): > 100 µM | IC50 [7, 15]: 34.4 µM | GI50 ([7]; corrected for time zero): 24.5 µM | EC50 ([7]; curve inflection point): 34.4 µM | IC50 [8, 15]: 10.3 µM | GI50 ([8]; corrected for time zero): 8.29 µM | EC50 ([8]; curve inflection point): 9.97 µM | IC50 [11, 15]: > 100 µM | GI50 ([11]; corrected for time zero): > 100 µM | EC50 ([11]; curve inflection point): > 100 µM | IC50 [13, 15]: 63.1 µM | GI50 ([13]; corrected for time zero): 56.4 µM | EC50 ([13]; curve inflection point): 63.1 µM
